Laboratory results from the supplement of paper PMC10307832.

Legend:
Assay in all cases: relative viability (nuclei count vs DMSO), 5 days (fraction); higher = more cells survive
[1] = compound: CS(=O)(=O)c1ccc(-c2cnc(N)c(C(=O)Nc3ccccc3)n2)cc1 [VE-821] + Cc1nc(Nc2ncc(C(=O)Nc3c(C)cccc3Cl)s2)cc(N2CCN(CCO)CC2)n1 [Dasatinib] (partner 0.075 µM)
Method in brief: (§1)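 For relative viability, nuclei counts in treated wells were divided by those in vehicle wells. Lung cancer cell lines had been pin-tool dosed in 1536-well plates the day after seeding and cultured for 5 days, then fixed and stained in one step (final 0.05% Triton X-100, 1% formaldehyde, 1 ug/ml Hoechst) and imaged at 4×. Doses were one drug alone or a fixed anchor-drug dose plus five library-drug doses (not always all listed) in √10 steps, and values are duplicate-plate medians.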

[2] = compound: CS(=O)(=O)c1ccc(C(=O)Nc2ccc(Cl)c(-c3ccccn3)c2)c(Cl)c1 [Vismodegib] + NC(=O)Nc1cc(-c2cccc(F)c2)sc1C(=O)N[C@H]1CCCNC1 [AZD7762] (partner 0.2 µM)
Method in brief: as §1

[3] = compound: N#CC[C@H](C1CCCC1)n1cc(-c2ncnc3[nH]ccc23)cn1 [Ruxolitinib] + O=C(c1cc(Cc2n[nH]c(=O)c3ccccc23)ccc1F)N1CCN(C(=O)C2CC2)CC1 [Olaparib] (partner 8 µM)
Method in brief: as §1

[4] = compound: CS(=O)(=O)c1ccc(-c2cnc(N)c(C(=O)Nc3ccccc3)n2)cc1 [VE-821] + NC(=O)Nc1cc(-c2cccc(F)c2)sc1C(=O)N[C@H]1CCCNC1 [AZD7762] (partner 0.2 µM)
Method in brief: as §1

Cell Line | relative viability ([1]; first compound 0.08 µM) | relative viability ([1]; first compound 0.253 µM) | relative viability ([1]; first compound 0.8 µM) | relative viability ([1]; first compound 2.53 µM) | relative viability ([1]; first compound 8 µM) | relative viability ([2]; first compound 0.08 µM) | relative viability ([2]; first compound 0.253 µM) | relative viability ([2]; first compound 0.8 µM) | relative viability ([2]; first compound 2.53 µM) | relative viability ([2]; first compound 8 µM) | relative viability ([3]; first compound 0.253 µM) | relative viability ([3]; first compound 0.8 µM) | relative viability ([3]; first compound 2.53 µM) | relative viability ([3]; first compound 8 µM) | relative viability ([4]; first compound 0.08 µM) | relative viability ([4]; first compound 0.253 µM) | relative viability ([4]; first compound 0.8 µM) | relative viability ([4]; first compound 2.53 µM) | relative viability ([4]; first compound 8 µM) | relative viability ([3]; first compound 0.08 µM)
PC-3 [JPC-3] | 1.06 | 0.967 | 1.07 | 1.02 | 0.907 | 0.824 | 0.715 | 0.743 | 0.729 | 0.708 | 1.07 | 1.13 | 1.03 | 0.922 | 0.882 | 0.728 | 0.99 | 0.798 | 0.62 | 
NCI-H2342 | 0.331 | 0.329 | 0.311 | 0.324 | 0.293 | 0.576 | 0.479 | 0.633 | 0.362 | 0.416 | 0.533 | 0.413 | 0.498 | 0.398 | 0.494 | 0.642 | 0.426 | 0.388 | 0.384 | 0.46
NCI-H1666 | 0.841 | 0.78 | 0.816 | 0.695 | 0.578 | 0.878 | 0.772 | 0.882 | 0.751 | 0.827 | 0.759 | 0.797 | 0.786 | 0.698 | 0.753 | 0.705 | 0.798 | 0.705 | 0.713 | 0.74
NCI-H1915 | 0.335 | 0.295 | 0.345 | 0.33 | 0.332 | 0.724 | 0.667 | 0.714 | 0.716 | 0.749 | 0.255 | 0.265 | 0.208 | 0.236 | 0.7 | 0.618 | 0.594 | 0.537 | 0.321 | 0.249
HCC-15 | 0.704 | 0.595 | 0.6 | 0.721 | 0.495 | 1.17 | 1.14 | 1.19 | 1.21 | 1.21 | 0.692 | 0.721 | 0.537 | 0.454 | 1.35 | 0.434 | 1.23 | 1.29 | 1.26 | 0.72
EKVX | 0.531 | 0.483 | 0.449 | 0.45 | 0.328 |  | 0.774 | 0.717 | 0.606 | 0.735 | 0.837 | 0.947 | 0.731 | 0.759 | 0.754 | 0.638 | 0.696 | 0.744 | 0.424 | 
NCI-H1792 | 0.981 | 0.89 | 0.731 | 0.851 | 0.727 | 0.682 | 0.679 | 0.677 | 0.724 | 0.729 | 0.44 | 0.377 | 0.384 | 0.236 | 0.665 | 0.432 | 0.328 | 0.196 | 0.135 | 0.303
PC-14 | 0.231 | 0.238 | 0.269 | 0.229 | 0.0835 | 0.301 | 0.326 | 0.458 | 0.272 | 0.353 | 0.302 | 0.233 | 0.353 | 0.298 | 0.362 | 0.232 | 0.315 | 0.338 | 0.187 | 
NCI-H650 | 0.501 | 0.445 | 0.465 | 0.528 | 0.426 | 0.958 | 0.925 | 0.864 | 0.953 | 1.06 | 0.436 | 0.392 | 0.384 | 0.314 | 0.873 | 0.954 | 0.992 | 0.836 | 1.04 | 0.379
NCI-H1355 | 0.748 | 0.65 | 0.609 | 0.627 | 0.575 | 0.763 | 0.694 | 0.806 | 0.744 | 0.722 | 0.749 | 0.798 | 0.655 | 0.616 | 0.773 | 0.621 | 0.499 | 0.539 | 0.195 | 0.745
HOP-62 | 0.708 | 0.656 | 0.651 | 0.858 | 0.684 | 0.591 | 0.41 | 0.798 | 0.691 | 0.423 | 0.389 | 0.381 | 0.315 | 0.416 | 0.906 | 0.616 | 0.406 | 0.392 | 0.19 | 
NCI-H3122 | 0.946 | 0.726 | 0.83 | 0.874 | 0.694 | 0.959 | 0.953 | 0.959 | 0.965 | 0.955 | 0.635 | 0.711 | 0.627 | 0.644 | 1.05 | 0.857 | 0.97 | 0.654 | 0.545 | 0.7
NCI-H1437 | 0.479 | 0.357 | 0.386 | 0.498 | 0.302 | 1.02 | 1.11 | 1.1 | 1.02 | 1.02 | 0.622 | 0.624 | 0.549 | 0.463 | 1.13 | 1.12 | 0.956 | 1.11 | 0.514 | 0.669
BEN | 0.31 | 0.337 | 0.282 | 0.291 | 0.364 | 0.792 | 0.68 | 0.77 | 0.684 | 0.701 | 1.27 | 1.24 | 0.96 | 0.994 | 0.651 | 0.62 | 0.675 | 0.505 | 0.396 | 1.16
NCI-H2087 | 0.871 | 0.814 | 0.912 | 1.2 | 0.786 | 1.28 | 1.14 | 1.14 | 1.33 | 1.36 |  | 0.454 | 0.631 | 0.579 | 1.6 | 1.08 | 1.12 | 1.04 | 0.66 | 0.433
NCI-H522 | 0.77 | 0.918 | 0.704 | 0.902 | 0.825 | 1.06 | 0.875 | 0.849 | 0.81 | 0.857 | 0.719 | 0.704 | 0.468 | 0.705 | 0.888 | 0.707 | 0.787 | 0.962 | 0.767 | 0.632
NCI-H2347 | 0.299 | 0.319 | 0.344 | 0.329 | 0.262 | 0.774 | 0.718 | 0.782 | 0.83 | 0.799 | 0.627 | 0.644 | 0.599 | 0.572 | 0.703 | 0.746 | 0.42 | 0.698 | 0.531 | 0.527
NCI-H838 | 0.301 | 0.259 |  | 0.288 | 0.24 | 0.799 | 0.876 | 0.918 | 0.888 | 0.975 | 0.718 | 0.62 | 0.4 | 0.202 | 0.944 | 0.859 | 0.771 | 0.727 | 0.692 | 0.801
LXF-289 | 0.235 | 0.247 | 0.195 | 0.223 | 0.155 | 1.02 | 1.1 | 1.1 | 1.09 | 1.08 | 1.1 | 1.13 | 1.03 | 0.924 | 0.931 | 1.08 | 1.12 | 0.971 | 0.686 | 0.994
LC-2-ad | 0.856 | 0.607 | 0.679 | 0.586 | 0.404 | 0.823 | 0.822 | 0.84 | 0.864 | 0.751 | 0.743 | 0.792 | 0.801 | 0.624 | 0.882 | 0.818 | 0.862 | 0.848 | 0.689 | 0.797
NCI-H2085 | 0.214 | 0.259 | 0.192 | 0.226 | 0.202 | 0.972 | 0.972 | 1.11 | 0.997 | 0.914 | 0.804 | 0.755 | 0.64 | 0.588 | 0.952 | 0.843 | 0.366 |  | 0.271 | 0.781
